Experimental data taken from patent US6642263B2, “Modulators of Rho C activity” (Iconix Pharmaceuticals Inc., priority 2001, dated 2003).

Molecular target: T1, RhoC (Homo sapiens, UniProt P08134)
T1 construct: cDNAs corresponding to the complete open reading frame of RhoC were PCR amplified; expressed in transfected cells; host or cells: Saccharomyces cerevisiae strain EIS20-2B, pARC35B-derived expression plasmid integrated at LYS2, galactose-induced
Assay: Yeast growth restoration assay (RhoC expressed in yeast, surrogate genetic assay)
Type: cell-based, mammalian
Conditions: retested in dilutions from 0.5 μM to 128 μM; 30° C., 40-42 hrs, OD600
Method: Compounds of the invention are assayed for activity using any convenient biochemical or biological assay. For example, one can examine compounds for binding to recombinantly-expressed RhoC, assay compounds for their ability to reverse a RhoC-induced phenotype in a heterologous cell (see e.g., WO99/24563, incorporated herein by reference), or using one or more of the experimental protocols described in the references cited herein. […] Compounds were also examined for inhibition of stress fibers, by stimulating NIH 3T3 cells with 10 μM LPA in DMEM+0.2% FBS in the presence of test compounds for 4 hours.
(A) cDNAs corresponding to the complete open reading frame of RhoC were PCR amplified from pooled total cDNAs initially synthesized from placental, fetal brain, and fetal liver poly(A)^+ mRNAs (Clontech Laboratories, Inc.). […]
After PCR, approximately 200 ng of amplified cDNA was cotransformed with approximately 100 ng of vector into yeast and transformants were selected for leucine prototrophy. […] Plasmids from at least three independent transformants were subsequently rescued into the E. coli strain DH5alpha via electroporation, and further characterized by restriction enzyme analysis and DNA sequencing of the RhoC open reading frame. […]

T1 sequence (P08134 whole entry): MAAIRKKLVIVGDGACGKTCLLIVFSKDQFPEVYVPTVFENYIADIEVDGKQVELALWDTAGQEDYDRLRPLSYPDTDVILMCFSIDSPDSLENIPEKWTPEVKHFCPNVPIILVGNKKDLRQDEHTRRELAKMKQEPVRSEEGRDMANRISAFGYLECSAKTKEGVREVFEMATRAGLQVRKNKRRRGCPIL

## Cc1ccc(NS(=O)(=O)CSc2nc3ccccc3s2)cc1 [2-(4-methylphenylsulfamyl)methylthio-benzo[d]thiazole]
  potency / activity (growth restoration of RhoC-expressing yeast): only weak activity
